The source of these data is article PMC7472354, “Enhanced Antimicrobial Activity of N-Terminal Derivatives of a Novel Brevinin-1 Peptide from The Skin Secretion of Odorrana schmackeri” (Toxins, 2020).

Converted amounts (≈) assume the structure as drawn. Like-named read-outs stand apart in the source and are kept apart here. Where a SMILES comes first, the peptide text is derived from it.

One data set relates to S. aureus. In kind it is cell-based, Staphylococcus aureus. As to conditions: 24 h. As for the experimental part:
(§1) The minimal inhibitory concentrations (MICs) and minimum bactericidal concentrations (MBCs) were evaluated to determine the antimicrobial activity of synthetic peptides. The microorganisms employed in the study are two kinds of Gram-negative bacteria, Escherichia coli (NCTC 10418) and Pseudomonas aeruginosa (ATCC 27853), three kinds of Gram-positive bacteria, Staphylococcus aureus (NCTC 10788), Methicillin-resistant Staphylococcus aureus (MRSA, ATCC 12493) and Enterococcus faecalis (NCTC 12697) and a yeast, Candida albicans (NCPF 1467), as indicated previously. For antimicrobial assays, 5 × 10^5 CFU/mL of bacterial suspensions were incubated with the concentrations of the peptides (ranging from 1 µM to 512 µM) for 24 h at 37 °C. The sterilised broth medium was used as the positive control and the microorganism cultured in the medium only was treated as the negative control. […] The MBC results were defined as the lowest bactericidal concentrations of peptide. The antimicrobial activity of peptides was tested by monitoring the absorbance at 550 nm using an ELISA plate reader (Biolise BioTek EL808, Winooski, VT, USA).
(§2) The activity of peptides in the different environmental conditions including different concentrations of NaCl (50, 100 and 150 mM) and MgCl2 (0.5, 1 and 2 mM), pH (6, 7 and 8), temperature (50 °C, 75 °C and 100 °C) and 10% fetal bovine serum (FBS) solution, was evaluated using the broth microdilution assay as described in the antimicrobial activity assay. For the stability test of peptides in the presence of salt, pH and serum, these conditions were adjusted in the fresh medium that was further used to dilute the bacteria suspension. The peptides were also dissolved in such broth and mixed with the bacteria suspension in the 96 well plate. For the thermal stability test, the peptides were dissolved in the water and incubated at different temperature for 15 min before dosing in the plate. The sterilised broth with corresponding conditions was used as the positive controls, and the bacteria suspension without any treatment was used as the negative controls.

Another data set relates to MRSA. In kind it is cell-based, Staphylococcus aureus. The note with it: 24 h. As for the experimental part: as §1, §2
Another data set deals with horse red blood cells. As to the kind of experiment: Haemolysis assay and therapeutic index. As to conditions: 2% horse red blood cells in PBS, 2 h, 37 °C, absorbance 570 nm; best-fitted curve.
The next data set deals with E. coli. In kind it is cell-based, Escherichia coli. The note with it: 24 h. As for the experimental part:
as §1, §2

Data set [1] relates to P. aeruginosa (ATCC 27853) biofilm. In kind it is cell-based, Pseudomonas aeruginosa. The note with it: for MBIC50 / MBIC90: ATCC 27853, 24 h. As for the experimental part:
The anti-biofilm effects of all synthetic peptides were evaluated, which was described in our previous study. The organisms, including S. aureus (NCTC 10788), E. coli (NCTC 10418), MRSA (ATCC 12493), E. faecalis (NCTC 12697) and P. aeruginosa (ATCC 27853), were investigated in this study. Gram-positive bacteria were cultured in the TSB broth and Gram-negative bacteria were cultured in the LB broth. The anti-biofilm effects were determined based on the MBIC and MBEC of all the peptides. For the determination of MBIC, 5 × 10^5 CFU/mL bacterial cultures were incubated with the peptides concentrations (ranging from 1 µM to 512 µM) for 24 h. The sterilised medium and bacterial suspension without any treatment were used as the negative controls and positive controls, respectively. After incubation, wells were rinsed, fixed, stained, washed and dissolved with phosphate buffer saline (PBS), methanol (90%, v/v), crystal violet (0.1%, w/v), sterile deionised water and acetic acid (30%, v/v), respectively. The absorbance of dissolved stain was measured at a 595 nm using a Synergy HT plate reader (Biotech, Minneapolis, MN, USA).
For the MBEC assay, the peptide concentrations were prepared as above. The bacteria were cultured in the 96 well plate for 24–48 h, which allowed the formation of mature biofilm in the plate. Then, the bacterial culture was removed from the plate. The biofilm was further washed to remove the planktonic bacteria using PBS. Then, the fresh broth that contained different peptide concentrations was added in the plate for incubation of 24 h at 37 °C. After incubation, the plate was stained by crystal violet as mentioned above. The definition of MBIC can be given when compared to the negative control group (≥90%, MBIC90; ≥50%, MBIC50). The definition of the MBEC can be given when compared to the negative control group (≥90%, MBEC90; ≥50%, MBEC50).

A further data set deals with E. faecalis. In kind it is cell-based, Enterococcus faecalis. As to conditions: 24 h. As for the experimental part:
as §1, §2

Data set [2] deals with Galleria mellonella larvae. As to the kind of experiment: Toxicity to uninfected Galleria mellonella larvae. In kind it is in vivo. As to conditions: uninfected G. mellonella larvae injected with drug; n = 30 per group; vancomycin 20 mg/kg. As for the experimental part: The in vivo study of antimicrobial activity of the peptides was evaluated using the larvae of Galleria mellonella, which was described in the previous study with minor modifications. The larvae of Galleria mellonella (250 ± 25 mg; Livefood UK Ltd., Rooks Bridge, UK) were selected. The MRSA culture was prepared the same way as the antimicrobial activity assay. Then, MRSA cells were collected and washed, and further diluted to 10^8 CFU/mL in the saline. Ten µL of MRSA suspension was injected to the larvae and placed in a petri dish. After 2 h, the MRSA infected larvae were administrated with 10 µL of peptides (25 mg/kg, 50 mg/kg) by injection. Saline and vancomycin (20 mg/kg) (Sigma-Aldrich, UK) were used as the negative control and positive control, respectively. Each sample group contained 10 larvae, and the experiment was repeated three times (30 larvae for each group in total). The survival curves were achieved using Prism (Version 6.0; GraphPad Software Inc., San Diego, CA, USA) and the log-rank test was employed to analyze the significance between the different treatments and the controls. * (p < 0.05), ** (p < 0.01) and *** (p < 0.001) represent statistical significance.
Figure A9 Larvae without any MRSA infection were injected with peptides and vancomycin respectively to access the cytotoxicity of the drugs to larvae bodies. […] Effect of treatment of G. mellonella larvae (n = 30 for each group) without any infection and only treated with 5 µL vancomycin (20 mg/kg), OSd, OSe and OSf.

For a further data set, the system named is P. aeruginosa. In kind it is cell-based, Pseudomonas aeruginosa. The note with it: 24 h. As for the experimental part: as §1, §2

Broadly, the MIC is the lowest concentration that inhibits growth of the organism. Turning to `CC(C)C[C@H](NC(=O)[C@H](C)NC(=O)[C@H](Cc1c[nH]c2ccccc12)NC(=O)[C@H](CCCCN)NC(=O)[C@@H]1CCCN1C(=O)[C@H](CC(C)C)NC(=O)[C@@H](N)Cc1ccccc1)C(=O)N[C@@H](CCCCN)C(=O)N[C@@H](Cc1c[nH]c2ccccc12)C(=O)N[C@@H](C)C(=O)N[C@@H](C)C(=O)N[C@@H](CCCCN)C(N)=O` [OSf] (H-FLPKWALKWAAK-NH2; N-terminus assumed), the MIC is 128 µM (≈ 187 µg/mL) with S. aureus (pH 6); 8 µM (≈ 11.7 µg/mL) in the data set on S. aureus (pH 7); 16 µM (≈ 23.3 µg/mL) against S. aureus (pH 8); 512 µM (≈ 746 µg/mL) with MRSA (pH 6); 16 µM (≈ 23.3 µg/mL) against MRSA (pH 7); 32 µM (≈ 46.7 µg/mL) against MRSA (pH 8). Further, the MIC in the data set on E. coli (pH 6) was 128 µM (≈ 187 µg/mL); in the data set with E. coli (pH 7), 8 µM (≈ 11.7 µg/mL); against E. coli (pH 8), 32 µM (≈ 46.7 µg/mL); in the data set with E. faecalis (pH 6), 512 µM (≈ 746 µg/mL); against E. faecalis (pH 7) it was 32 µM (≈ 46.7 µg/mL); in the data set with E. faecalis (pH 8), 128 µM (≈ 187 µg/mL). For the same compound, the MIC against P. aeruginosa (pH 6) was 128 µM (≈ 187 µg/mL); with P. aeruginosa (pH 7), 256 µM (≈ 373 µg/mL); in the data set with P. aeruginosa (pH 8), 64 µM (≈ 93.3 µg/mL). The “HC50 (concentration causing 50% haemolysis of the red blood cells)” value in the data set on horse red blood cells came out at 328.3 µM. The MBEC50 in data set [1] is more than 512 µM. In addition, the MBEC90 in data set [1] is more than 512 µM. The MBIC50 in data set [1] is on record as 64 µM. In addition, the MBIC90 in data set [1] amounted to 256 µM. In addition, the “toxicity to larvae without MRSA infection” value in data set [2] is “No noticeable cytotoxicity”.

Consider `CC(C)C[C@H](NC(=O)[C@H](C)NC(=O)[C@H](Cc1c[nH]c2ccccc12)NC(=O)[C@H](CCCCN)NC(=O)[C@H](CC(C)C)NC(=O)[C@@H](N)Cc1ccccc1)C(=O)N[C@@H](CCCCN)C(=O)N[C@@H](Cc1c[nH]c2ccccc12)C(=O)N[C@@H](C)C(=O)N[C@@H](C)C(=O)N[C@@H](CCCCN)C(N)=O` [OSe] (H-FLKWALKWAAK-NH2), for which the MIC with S. aureus (pH 6) is 16 µM (≈ 21.8 µg/mL); in the data set with S. aureus (pH 7), 8 µM (≈ 10.9 µg/mL); in the data set on S. aureus (pH 8), 4 µM (≈ 5.44 µg/mL); against MRSA (pH 6), 64 µM (≈ 87.1 µg/mL); with MRSA (pH 7), 16 µM (≈ 21.8 µg/mL); against MRSA (pH 8), 8 µM (≈ 10.9 µg/mL). Besides, the minimum inhibitory concentration (MIC) in the data set on E. coli (pH 6) is reported as 32 µM (≈ 43.5 µg/mL); with E. coli (pH 7), 16 µM (≈ 21.8 µg/mL); in the data set on E. coli (pH 8), 16 µM (≈ 21.8 µg/mL); with E. faecalis (pH 6), 32 µM (≈ 43.5 µg/mL); against E. faecalis (pH 7), 64 µM (≈ 87.1 µg/mL); in the data set on E. faecalis (pH 8) it was 32 µM (≈ 43.5 µg/mL). Further, the MIC against P. aeruginosa (pH 6) turned out to be 32 µM (≈ 43.5 µg/mL); against P. aeruginosa (pH 7), 64 µM (≈ 87.1 µg/mL); with P. aeruginosa (pH 8) it was 32 µM (≈ 43.5 µg/mL). Moreover, in the data set on horse red blood cells, the “HC50 (concentration causing 50% haemolysis of the red blood cells)” value was determined as 64.03 µM. Further, in data set [1], the MBEC50 is reported as more than 512 µM. Also, the MBEC90 in data set [1] is recorded as more than 512 µM. Also, the MBIC50 in data set [1] is listed as 64 µM. The MBIC90 in data set [1] was determined as 128 µM. The “toxicity to larvae without MRSA infection” value in data set [2] is on record as “No noticeable cytotoxicity”.

As to `CC(C)C[C@H](NC(=O)[C@H](C)NC(=O)[C@H](Cc1c[nH]c2ccccc12)NC(=O)[C@H](CCCCN)NC(=O)[C@H](CC(C)C)NC(=O)[C@@H](N)Cc1ccccc1)C(=O)N[C@@H](CCCCN)C(=O)N[C@H](C(=O)N[C@@H](C)C(=O)N[C@@H](C)C(=O)N[C@@H](CCCCN)C(N)=O)C(C)C` [OSd] (H-FLKWALKVAAK-NH2), the MIC stood at 64 µM (≈ 81.5 µg/mL) in the data set with S. aureus (pH 6); 32 µM (≈ 40.8 µg/mL) in the data set on S. aureus (pH 7); 32 µM (≈ 40.8 µg/mL) with S. aureus (pH 8); 256 µM (≈ 326 µg/mL) in the data set on MRSA (pH 6); 128 µM (≈ 163 µg/mL) against MRSA (pH 7); 64 µM (≈ 81.5 µg/mL) against MRSA (pH 8). In addition, the MIC in the data set with E. coli (pH 6) came to 64 µM (≈ 81.5 µg/mL); against E. coli (pH 7), 64 µM (≈ 81.5 µg/mL); against E. coli (pH 8), 64 µM (≈ 81.5 µg/mL); against E. faecalis (pH 6) it was 256 µM (≈ 326 µg/mL); against E. faecalis (pH 7) it was 128 µM (≈ 163 µg/mL); in the data set with E. faecalis (pH 8), 128 µM (≈ 163 µg/mL). Moreover, the values for the MIC against P. aeruginosa (pH 6), with P. aeruginosa (pH 7) and against P. aeruginosa (pH 8) were 128 µM (≈ 163 µg/mL), 128 µM (≈ 163 µg/mL) and 64 µM (≈ 81.5 µg/mL), respectively. In addition, the MBEC50 in data set [1] was more than 512 µM. Also, in data set [1], the MBEC90 is more than 512 µM. Also, in data set [1], the MBIC50 is reported as 128 µM. In addition, the MBIC90 in data set [1] is reported as 256 µM. In addition, the “toxicity to larvae without MRSA infection” value in data set [2] is given as “No noticeable cytotoxicity”.
